Here are results for seven compounds from ChEMBL document CHEMBL1811812, “Identification of a novel selective H1-antihistamine with optimized pharmacokinetic properties for clinical evaluation in the treatment of insomnia” (Bioorg Med Chem Lett, 2010).

The species entered for series [1] is Homo sapiens. The experiment in a line: Toxicity in human assessed as residual effect at 1 mg to 3 mg. In kind it is organism-based. Conditions: in vivo.
The species named for series [2] is Homo sapiens. The series can be described thus: Antiinsomnic activity in human assessed as duration of sleep maintenance at 1 mg after 8 hrs. It is filed as functional, organism-based.
For series [3], the species on record is Homo sapiens. The experiment in a line: Antiinsomnic activity in human assessed as duration of sleep maintenance at 1 mg. It is filed as functional.
Series [4] in a line: Elimination half life in human at 50 mg by RIA. It is filed as ADME, organism-based. Conditions: in vivo, read-out: beta t1/2 (converted).
In series [5] the test system is Rattus norvegicus. The series can be described thus: Effect on sleep-awake cycle in EEG/EMG rat model assessed as latency to 1 min NREM sleep at 60 mg/kg measured up to 4 hrs relative to control. It is filed as functional.
In series [6] the test system is Rattus norvegicus. The experiment in a line: Effect on sleep-awake cycle in EEG/EMG rat model assessed as increase in non rapid eye movement sleep at 60 mg/kg measured up to 4 hrs relative to control. It is filed as functional.
Series [7] deals with Rattus norvegicus. The series can be described thus: Effect on sleep-awake cycle in EEG/EMG rat model assessed as latency to 1 min NREM sleep at 30 mg/kg measured up to 4 hrs relative to control. It is filed as functional.
The subject of series [8] is Rattus norvegicus. The experiment in a line: Effect on sleep-awake cycle in EEG/EMG rat model assessed as increase in non rapid eye movement sleep at 30 mg/kg measured up to 4 hrs relative to control. In kind it is functional.
The species entered for series [9] is Homo sapiens. The series can be described thus: Selectivity for histamine H1 receptor over histamine H2 receptor in human conjuctival mast cells.
Series [10] can be described thus: Inhibition of H2 receptor.
For the next series, the target named is Cytochrome P450 3A4 (Homo sapiens, UniProt P08684).
The nature of series [11]: AUC (0 to t) in human at […], po. Conditions: plasma. In kind it is ADME, organism-based. Further details: route oral.
Series [12] in a line: Half life in human at […], po. Further details: route oral. Conditions: in vivo. It is filed as ADME, organism-based.
Series [13] can be described thus: clinical. Conditions: human, in vivo, po, 0.1 mg/kg.
Description: Half life in human at 0.1 mg/kg, po and iv administered as single dose
Series [14] in a line: clinical. Conditions: human, plasma, 0.1 mg/kg.
Description: AUC (0 to t) in human at 0.1 mg/kg
Series [15] can be described thus: Clearance in EEG/EMG rat model. Conditions: in vivo.
Series [16] is described as follows: Plasma concentration in human at […] after 1 hr. It is filed as ADME, organism-based.
A short description of series [17]: Systemic clearance in human at […]. In kind it is ADME, organism-based. Conditions: in vivo.
A short description of series [18]: Dissociation constant, pKa of the compound.
Series [19] has as its system Rattus norvegicus. The series can be described thus: Effect on sleep-awake cycle in EEG/EMG rat model assessed as increase in non rapid eye movement sleep at 3 mg/kg measured up to 4 hrs relative to control. It is filed as functional.
Series [20] deals with Rattus norvegicus. The experiment in a line: Effect on sleep-awake cycle in EEG/EMG rat model assessed as latency to 1 min NREM sleep at 3 mg/kg measured up to 4 hrs relative to control. It is filed as functional.

Active and inactive are the calls of the source. The calls are words filed in the database; no cut-off is given here. A value given as a limit tells only on which side of the number the result lay.

Sequence of Cytochrome P450 3A4 (P08684 whole entry): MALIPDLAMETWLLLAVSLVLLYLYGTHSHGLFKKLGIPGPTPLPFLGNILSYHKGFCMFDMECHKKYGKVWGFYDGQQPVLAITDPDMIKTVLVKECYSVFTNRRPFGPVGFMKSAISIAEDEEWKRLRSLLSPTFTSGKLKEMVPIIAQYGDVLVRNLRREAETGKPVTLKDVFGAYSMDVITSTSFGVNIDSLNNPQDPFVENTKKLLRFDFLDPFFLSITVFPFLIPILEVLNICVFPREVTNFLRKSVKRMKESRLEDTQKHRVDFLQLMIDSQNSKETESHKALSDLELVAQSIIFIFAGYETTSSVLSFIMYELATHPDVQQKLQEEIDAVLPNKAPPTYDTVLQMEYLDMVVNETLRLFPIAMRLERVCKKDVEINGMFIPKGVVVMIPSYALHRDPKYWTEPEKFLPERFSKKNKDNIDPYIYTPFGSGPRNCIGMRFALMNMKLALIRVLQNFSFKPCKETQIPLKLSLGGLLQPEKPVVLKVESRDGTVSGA

As to `CN(C)CCC=C1c2ccccc2COc2ccccc21` [DOXEPIN], the Activity result in the series listed under Homo sapiens [1] is on record as “Non-toxic”. The result in the series filed under Homo sapiens [2] was inactive. The Time in the series listed under Homo sapiens [3] was determined as 8 h. Also, the half-life in [4] is 18 h.

Take `C[C@H](C1=C(CCN(C)C)Cc2ccccc21)c1cnccn1`: the Activity is listed as 109% in the series with Rattus norvegicus [5] and 145% in the series on Rattus norvegicus [6].

As to `Cc1ccc(-c2nc3ccc(C)cn3c2CC(=O)N(C)C)cc1` [ZOLPIDEM], the Activity in the series on Rattus norvegicus [7] stood at 17%; in the series with Rattus norvegicus [8], 205%.

As to `C[C@H](C1=C(CCN(C)C)Cc2ccccc21)c1ccccn1`, the Selectivity ratio in the series filed under Homo sapiens [9] was 100.

For orientation: Ki means a measure of affinity in units of concentration, obtained from inhibition or displacement. With `COc1nccnc1[C@H](C)C1=C(CCN(C)C)Cc2cc(F)ccc21`, in series [10], affinity was put at a Ki of 4.5 nM. That is a single-digit nanomolar value.

In general, IC50 refers to the concentration that gives 50% inhibition. Read a high IC50 as lower potency. The AUC(0-t) is exposure summed from dosing to a finite time, without extrapolation to infinity. Lower therefore signals low exposure. Broadly, the clearance is the rate of elimination divided by the concentration. As usually defined, the pKa is the pH at which an ionisable group is half protonated. A low value points to a stronger acid or weaker base. At Cytochrome P450 3A4, `C[C@@H](c1ccccn1)c1c(CCN(C)C)sc2ccccc12` had an IC50 of over 10000 nM. Moreover, the AUC(0-t) in series [11] amounted to 1.9 ng·h/mL; in “clinical [14]”, 2.8 ng·h/mL. The half-life in [12] was 3.6 h; in the series “clinical [13]”, 6.8 h. Moreover, the figures for the clearance in series [15] and in series [17] were over 68 mL/min/kg and 3.8 mL/min/kg, respectively. The concentration at 1 h in series [16] turned out to be 4 ng/mL. In [18], the pKa was found to be 8.5. Moreover, the Activity in the series with Rattus norvegicus [7] is 124%; with Rattus norvegicus [8], 142%.

As for `CN(C)CCC1=C(Cc2cccnn2)c2ccc(F)cc2C1`, the Activity with Rattus norvegicus [19] turned out to be 136%; in the series with Rattus norvegicus [20] it was 106%.
